Measurements: patent US20240059703A1 (AMGEN INC., priority 2021, published 2024)

Experiments:
KRAS G12C = KRAS G12C (Homo sapiens (Human), UniProt P01116, C118A/G12C); experiment: 2 h coupled exchange assay; type: biochemical; conditions: Avg 2 h Coupled exchange IC50, 2 h compound pre-incubation
Protocol: The term “2 h coupled exchange assay” or “20 h coupled exchange assay” as used herein refers to the assay described in the Section entitled “BIOLOGICAL EVALUATION.”

[1] = test system: MIA PaCa-2 (human pancreatic carcinoma) cells; experiment: Cell Viability Assay (CellTiter-Glo), MIA PaCa-2; type: cell-based
Protocol: Serially-diluted compound or DMSO was added to the cells, and plates were incubated at 37° C., 5% CO2 for 72 h. Cell viability was measured using a CellTiter-Glo® Luminescent Cell Viability Assay kit (Promega) according to the manufacturer's protocol. The luminescence signal of treated samples was normalized to DMSO control, and data were analyzed using a 4-parameter logistic model to calculate IC50 values.

[2] = test system: A549 (human lung carcinoma) cells; experiment: Cell Viability Assay (CellTiter-Glo), A549; type: cell-based
How it was run: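 Seeding at 1.67E+04 cells/mL is followed by overnight attachment at 37° C., 5% CO2. Serially diluted compound is added for 72 h. Viability is read by CellTiter-Glo luminescence, scaled to DMSO and fitted (4-parameter logistic) to give IC50.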

[3] = SOS-mediated nucleotide exchange

Sequence of KRAS G12C (P01116 other isoform, or with tags, fused parts or gaps G12C/C118A): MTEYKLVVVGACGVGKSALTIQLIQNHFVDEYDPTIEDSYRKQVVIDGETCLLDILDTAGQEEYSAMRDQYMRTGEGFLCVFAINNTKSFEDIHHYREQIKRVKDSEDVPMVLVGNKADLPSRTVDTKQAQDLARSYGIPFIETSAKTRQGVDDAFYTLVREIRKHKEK

SMILES	IC50 (KRAS G12C) [nM]	IC50 ([1]; Homo sapiens, MIA PaCa-2, 72 h) [nM]	IC50 ([2]; Homo sapiens, A549, 72 h) [nM]	IC50 ([1]; 72 h) [nM]	IC50 (KRAS G12C; [3]) [nM]	IC50 ([2]; 72 h) [nM]
C=CC(=O)N1CC2(C1)CN(c1nc3cc(-c4ccnn4C)ccc3c(-c3ccccc3Cl)c1C#N)CC2(F)F [Example 17-2, 4-(2-chlorophenyl)-2-(8,8-difluoro-2-(2-propenoyl)-2,6-diazaspiro[3.4]octan-6-yl)-7-(1-methyl-1H-pyrazol-5-yl)-3-quinolinecarbonitrile]	98	1880	3020	–	–	–
C=CC(=O)N1CC2(CCN(c3nc4c(c(-c5ccccc5C)c3C#N)CC[C@@H](c3scnc3C)C4)C2)C1 (single isomer, unassigned) [Example 23-3]	107	–	> 5000	2520	–	–
C=CC(=O)N1CC2(CCN(c3nc4c(c(-c5ccccc5Cl)c3C#N)CCC(c3scnc3C)=C4)C2)C1 (single isomer, unassigned) [Example 23-41, (M)-4-(2-chlorophenyl)-7-(4-methyl-1,3-thiazol-5-yl)-2-(2-(2-propenoyl)-2,6-diazaspiro[3.4]octan-6-yl)-5,6-dihydro-3-quinolinecarbonitrile]	325	–	5770	2390	–	–
C=CC(=O)N1CC2(CCN(c3nc4c(c(-c5cccc6cc(O)ccc56)n3)CCCC4)C2)C1 [Example 1-21, 1-(6-(4-(6-hydroxy-1-naphthalenyl)-5,6,7,8-tetrahydro-2-quinazolinyl)-2,6-diazaspiro[3.4]octan-2-yl)-2-propen-1-one]	–	> 5000	> 5000	–	435	–
C=CC(=O)N1CC2(CCN(c3nc4c(c(-c5cccc(C)c5Cl)c3C#N)COC(C)(C)C4)C2)C1 [Example 13-152, 4-(2-chloro-3-methylphenyl)-7,7-dimethyl-2-(2-(2-propenoyl)-2,6-diazaspiro[3.4]octan-6-yl)-7,8-dihydro-5H-pyrano[4,3-b]pyridine-3-carbonitrile]	–	1930	9050	–	787	–
C=CC(=O)N1CC2(CCN(c3nc4c(c(-c5cc(O)ccc5Cl)c3C#N)CCN(c3scnc3C)C4)C2)C1 (single isomer, unassigned) [Example 21-24, (P)-4-(2-chloro-5-hydroxyphenyl)-7-(4-methyl-1,3-thiazol-5-yl)-2-(2-(2-propenoyl)-2,6-diazaspiro[3.4]octan-6-yl)-5,6,7,8-tetrahydro-1,7-naphthyridine-3-carbonitrile]	18	–	–	297	–	> 5000
C=CC(=O)N1CC2(CCN(c3nc4c(c(-c5cc(O)ccc5Cl)c3C)CCN(C(C)C)C4)C2)C1 [Example 18-9, 1-(6-(4-(2-chloro-5-hydroxyphenyl)-3-methyl-7-(2-propanyl)-5,6,7,8-tetrahydro-1,7-naphthyridin-2-yl)-2,6-diazaspiro[3.4]octan-2-yl)-2-propen-1-one]	419	316	> 5000	–	–	–
C=CC(=O)N1CC2(CCN(c3cc4c(c(-c5c(C)ccc6cnn(C)c56)c3C#N)OCCC4)C2)C1 [Example 2-101, 8-(1,6-dimethyl-1H-indazol-7-yl)-6-(2-(2-propenoyl)-2,6-diazaspiro[3.4]octan-6-yl)-3,4-dihydro-2H-chromene-7-carbonitrile]	–	37	13400	–	28	–
C=CC(=O)N1CC2(C1)CN(c1nc3cc(OC)ccc3c(-c3c(C)ccc4[nH]ncc34)c1C#N)CC2(F)F [Example 14-20, 2-(8,8-difluoro-2-(2-propenoyl)-2,6-diazaspiro[3.4]octan-6-yl)-7-methoxy-4-(5-methyl-1H-indazol-4-yl)-3-quinolinecarbonitrile]	31	2550	> 5000	–	–	–
C=CC(=O)N1CC2(CCN(c3nc4c(c(-c5cccc6cccc(C)c56)n3)CCCC4)C2)C1 [Example 1-7, 1-(6-(4-(8-methyl-1-naphthalenyl)-5,6,7,8-tetrahydro-2-quinazolinyl)-2,6-diazaspiro[3,4]octan-2-yl)-2-propen-1-one]	–	> 5000	> 5000	–	997	–
C=CC(=O)N1CC2(CCN(c3nc4c(c(-c5c(C)ccc6[nH]ncc56)c3C#N)CCC43CC3)C2)C1 [Example 13-101, 2-(2-acryloyl-2,6-diazaspiro[3.4]octan-6-yl)-4-(5-methyl-1H-indazol-4-yl)-5,6-dihydrospiro[cyclopenta[b]pyridine-7,1′-cyclopropane]-3-carbonitrile]	–	1370	> 5000	–	102	–
C=CC(=O)N1CC2(CCN(c3nc4c(c(-c5c(C)ccc6cnn(C)c56)c3C)CCN(C3(C)COC3)C4)C2)C1 [Example 36-1, 1-(6-(4-(1,6-dimethyl-1H-indazol-7-yl)-3-methyl-7-(3-methyl-3-oxetanyl)-5,6,7,8-tetrahydro-1,7-naphthyridin-2-yl)-2,6-diazaspiro[3.4]octan-2-yl)-2-propen-1-one]	589	335	14600	–	–	–
C=CC(=O)N1CC2(CCN(c3nc4c(c(-c5c(C)ccc6[nH]ncc56)c3C#N)C[C@H]3C[C@@H]4C3(C)C)C2C)C1 (stereo partly drawn) [Example 13-94, (1R,9R)-10,10-dimethyl-6-(5-methyl-1H-indazol-4-yl)-4-((5R)-5-methyl-2-(2-propenoyl)-2,6-diazaspior[3.4]octan-6-yl)-3-azatricyclo[7.1.1.0^2,7]undeca-2,4,6-triene-5-carbonitrile|(1R,9R)-10,10-dimethyl-6-(5-methyl-1H-indazol-4-yl)-4-((5S)-5-methyl-2-(2-propenoyl)-2,6-diazaspiro[3.4]octan-6-yl)-3-azatricyclo[7.1.1.0^2,7]undeca-2,4,6-triene-5-carbonitrile]	–	42	> 5000	–	51	–
C=CC(=O)N1CC2(CCN(c3nc4c(c(-c5cc(O)cc6ccccc56)c3C)COC(C)(C)C4)C2)C1 (single isomer, unassigned) [Example 14-103, (M)-1-(6-(4-(3-hydroxy-1-naphthalenyl)-3,7,7-trimethyl-7,8-dihydro-5H-pyrano[4,3-b]pyridin-2-yl)-2,6-diazaspiro[3.4]octan-2-yl)-2-propen-1-one]	45	32	7620	–	–	–
C=CC(=O)N1CC2(CCN(c3nc4c(c(-c5cc(O)ccc5C)c3C#N)COC(C)(C)C4)C2)C1 [Example 13-112, 4-(5-hydroxy-2-methylphenyl)-7,7-dimethyl-2-(2-(2-propenoyl)-2,6-diazaspiro[3.4]octan-6-yl)-7,8-dihydro-5H-pyrano[4,3-b]pyridine-3-carbonitrile]	–	> 5000	> 5000	–	117	–
C=CC(=O)N1CC2(CCN(c3nc4c(c(-c5ncccc5C)c3C#N)COC(c3scnc3C)C4)C2)C1 [Example 23-14, (7R)-4-(3-methyl-2-pyridinyl)-7-(4-methyl-1,3-thiazol-5-yl)-2-(2-(2-propenoyl)-2,6-diazaspiro[3.4]octan-6-yl)-7,8-dihydro-5H-pyrano[4,3-b]pyridine-3-carbonitrile (7S)-4-(3-methyl-2-pyridinyl)-7-(4-methyl-1,3-thiazol-5-yl)-2-(2-(2-propenoyl)-2,6-diazaspiro[3.4]octan-6-yl)-7,8-dihydro-5H-pyrano[4,3-b]pyridine-3-carbonitrile]	802	1310	> 25000	–	–	–
C=CC(=O)N1CC2(CCN(c3nc4c(c(-c5cc(O)ccc5F)c3C)CCN(c3scnc3C)C4)C2)C1 [Example 18-13, 1-(6-(4-(2-fluoro-5-hydroxyphenyl)-3-methyl-7-(4-methyl-1,3-thiazol-5-yl)-5,6,7,8-tetrahydro-1,7-naphthyridin-2-yl)-2,6-diazaspiro[3.4]octan-2-yl)-2-propen-1-one]	86	89	> 5000	–	–	–
C=CC(=O)N1CC2(CCN(c3nc4c(c(-c5cc(O)ccc5C(F)(F)F)c3C#N)COC(C)(C)C4)C2)C1 [Example 14-86, 4-(5-hydroxy-2-(trifluoromethyl)phenyl)-7,7-dimethyl-2-(2-(2-propenoyl)-2,6-diazaspiro[3.4]octan-6-yl)-7,8-dihydro-5H-pyrano[4,3-b]pyridine-3-carbonitrile]	108	418	> 5000	–	–	–
C=CC(=O)N1CC2(CCN(c3nc4c(c(-c5cc(O)cc6ccccc56)c3C)CCC(C)(C)C4)C2)C1 [Example 2-27, 1-(6-(4-(3-hydroxy-1-naphthalenyl)-3,7,7-trimethyl-5,6,7,8-tetrahydro-2-quinolinyl)-2,6-diazaspiro[3,4]octan-2-yl)-2-propen-1-one]	–	214	> 5000	–	102	–
Cc1ccc2[nH]ncc2c1-c1c(C#N)c(N2CCC3(CN(C(=O)/C=C/CN(C)C)C3)C2)nc2c1CCC(C)(C)C2 [Example 13-2, 2-(2-((2E)-4-(dimethylamino)-2-butenoyl)-2,6-diazaspiro[3.4]octan-6-yl)-7,7-dimethyl-4-(5-methyl-1H-indazol-4-yl)-5,6,7,8-tetrahydro-3-quinolinecarbonitrile]	–	366	3700	–	61	–
C=CC(=O)N1CC2(CCN(c3nc4c(c(-c5cc(O)cc6ccccc56)c3C#N)C[C@H]3C[C@@H]4C3(C)C)C2)C1 [Example 13-108, (1R,9R)-6-(3-hydroxy-1-naphthalenyl)-10,10-dimethyl-4-(2-(2-propenoyl)-2,6-diazaspiro[3.4]octan-6-yl)-3-azatricyclo[7.1.1.0^2,7]undeca-2,4,6-triene-5-carbonitrile]	–	63	2910	–	24	–
